The values below come from paper PMC5155152, “A diverse intrinsic antibiotic resistome from a cave bacterium” (Nature Communications, 2016).

Converted amounts (≈) assume the structure as drawn. Bounds are passed on as bounds.

This assay deals with T1, Paenibacillus sp. LC231.
T1 construct: LC231
The experiment in a line: microbe, parasite or virus in culture. On the set-up: antibacterial susceptibility, minimal inhibitory concentration (quantitative antibiogram). From the text: We generated a quantitative antibiogram for Paenibacillus sp. LC231 for 40 different antibiotics that target diverse cellular processes and compared it with the susceptibility of a surface strain of Paenibacillus lautus ATCC 43898, the pathogen Staphylococcus aureus RN4220 and the environmental bacterium Kocuria rhizophila (formerly identified as Micrococcus luteus) (Supplementary Tables 1 and 2). […] Further experiments in this study investigate the molecular basis of resistance and not the contribution of each genetic determinant to the resistance phenotype of Paenibacillus sp. LC231. […] We focused our investigation on Paenibacillus sp. LC231 and determined that in addition to resistance to 14 classes of antibiotic, it inactivates 7 distinct classes.

In turn, `N=C1NCCC([C@@H]2NC(=O)/C(=C/NC(N)=O)NC(=O)[C@H](CNC(=O)CC(N)CCCN)NC(=O)[C@H](CO)NC(=O)[C@@H](N)CNC2=O)N1` (mixture of isomers) [capreomycin] returned an MIC of 32 µg/mL.

`NCC[C@H](O)C(=O)N[C@@H]1C[C@H](N)[C@@H](O[C@H]2O[C@H](CN)[C@@H](O)[C@H](O)[C@H]2O)[C@H](O)[C@H]1O[C@H]1O[C@H](CO)[C@@H](O)[C@H](N)[C@H]1O` [Amikacin] returned an MIC of 16 µg/mL (≈ 27.3 µM).

`CC1(C)S[C@@H]2[C@H](NC(=O)[C@H](N)c3ccccc3)C(=O)N2[C@H]1C(=O)O` [Ampicillin] registered an MIC of 8 µg/mL (≈ 22.9 µM).

Consider `CN[C@@H]1[C@@H](O[C@H]2O[C@H](CO)[C@@H](N)[C@H](O)[C@H]2O)O[C@H]2C[C@@H](N)[C@@H](O[C@H]3[C@H](O)[C@@H](O)[C@H](N)C[C@@H]3N)O[C@@H]2[C@@H]1O` [Apramycin], for which the MIC came out at 8 µg/mL (≈ 14.8 µM).

`CC[C@H]1OC(=O)[C@H](C)[C@@H](O[C@H]2C[C@@](C)(OC)[C@@H](O)[C@H](C)O2)[C@H](C)[C@@H](O[C@@H]2O[C@H](C)C[C@H](N(C)C)[C@H]2O)[C@](C)(O)C[C@@H](C)CN(C)[C@H](C)[C@@H](O)[C@]1(C)O` [Azithromycin] displayed an MIC of 16 µg/mL (≈ 21.4 µM).

In turn, `CO/N=C(\C(=O)N[C@@H]1C(=O)N2C(C(=O)O)=C(COC(C)=O)CS[C@H]12)c1csc(N)n1` [Cefotaxime] showed an MIC of 2 µg/mL (≈ 4.39 µM).

On to `CC1=C(C(=O)O)N2C(=O)[C@@H](NC(=O)[C@H](N)c3ccccc3)[C@H]2SC1` [Cephalexin], for which the MIC was no less than 128 µg/mL.

For the compound `O=C(O)c1cn(C2CC2)c2cc(N3CCNCC3)c(F)cc2c1=O` [Ciprofloxacin], the MIC turned out to be 0.25 µg/mL (≈ 0.754 µM).

With `CC[C@H]1OC(=O)[C@H](C)[C@@H](O[C@H]2C[C@@](C)(OC)[C@@H](O)[C@H](C)O2)[C@H](C)[C@@H](O[C@@H]2O[C@H](C)C[C@H](N(C)C)[C@H]2O)[C@](C)(OC)C[C@@H](C)C(=O)[C@H](C)[C@@H](O)[C@]1(C)O` [Clarithromycin], the MIC was 0.25 µg/mL (≈ 0.334 µM).

For the compound `CCC[C@@H]1C[C@@H](C(=O)N[C@@H]([C@H]2O[C@H](SC)[C@H](O)[C@@H](O)[C@H]2O)[C@H](C)Cl)N(C)C1` [Clindamycin], the MIC came out at 16 µg/mL (≈ 37.6 µM).

With `CC[C@H]1OC(=O)[C@H](C)[C@@H](O[C@H]2C[C@@](C)(OC)[C@@H](O)[C@H](C)O2)[C@H](C)[C@@H](O[C@@H]2O[C@H](C)C[C@H](N(C)C)[C@H]2O)[C@](C)(O)C[C@@H](C)C(=O)[C@H](C)[C@@H](O)[C@]1(C)O` [Erythromycin], the MIC came to 2 µg/mL (≈ 2.73 µM).

`CC1=C\[C@@H](O)C[C@@H](F)Cc2nc(co2)C(=O)N2CCC[C@@H]2C(=O)O[C@H](C(C)C)[C@H](C)/C=C/C(=O)NC\C=C\1` [Flopristin] displayed an MIC of 32 µg/mL (≈ 60.2 µM).

`C[C@@H]1O[C@@H]1P(=O)(O)O` [Fosfomycin]: the MIC is no less than 128 µg/mL.

In the case of `CC(=O)O[C@H]1C[C@@]2(C)[C@@H](C[C@@H](O)[C@H]3[C@@]4(C)CC[C@@H](O)[C@@H](C)[C@@H]4CC[C@@]32C)/C1=C(\CCC=C(C)C)C(=O)O` [Fusidic acid], the MIC is 8 µg/mL (≈ 15.5 µM).

Turning to `CNC(C)[C@@H]1CC[C@@H](N)[C@@H](O[C@H]2[C@H](O)[C@@H](O[C@H]3OC[C@](C)(O)[C@H](NC)[C@H]3O)[C@H](N)C[C@@H]2N)O1` (stereo partly shown) [Gentamicin], the MIC is 2 µg/mL (≈ 4.19 µM).

`NC[C@H]1O[C@H](O[C@H]2[C@H](O)[C@@H](O[C@H]3O[C@H](CO)[C@@H](O)[C@H](N)[C@H]3O)[C@H](N)C[C@@H]2N)[C@H](O)[C@@H](O)[C@@H]1O` [Kanamycin] had an MIC of no less than 128 µg/mL.

For the compound `C[C@H]1COc2c(N3CCN(C)CC3)c(F)cc3c(=O)c(C(=O)O)cn1c23` [Levofloxacin], the MIC came to 0.25 µg/mL (≈ 0.692 µM).

The compound `CC(=O)NC[C@H]1CN(c2ccc(N3CCOCC3)c(F)c2)C(=O)O1` [Linezolid] returned an MIC of 1 µg/mL (≈ 2.96 µM).

Compound `C[C@@H](O)[C@H]1C(=O)N2C(C(=O)O)=C(S[C@@H]3CN[C@H](C(=O)N(C)C)C3)[C@H](C)[C@H]12` [Meropenem] gave an MIC of 2 µg/mL (≈ 5.22 µM).
